What is called IC50 is the midpoint of a concentration-inhibition curve. High values mean weaker potency, low ones greater potency.

The source of these data is US11596632B2, “JAK1 pathway inhibitors for the treatment of gastrointestinal disease” (Incyte Corporation, priority 2018, dated 2023).

Test [1] has as its target JAK2 (a.a. 828-1132) (Homo sapiens (Human), UniProt O60674). As to the kind of experiment: In vitro JAK kinase assay (HTRF), JAK2 relative to JAK1. The format is biochemical. The conditions noted are these: IC50 ratio, 1 mM ATP. How it is done: (§1) The catalytic activity of JAK1, JAK2 or JAK3 was assayed by measuring the phosphorylation of a biotinylated peptide. The phosphorylated peptide was detected by homogenous time resolved fluorescence (HTRF). […] Reactions are carried out at room temperature for 1 hour and then stopped with 20 μL 45 mM EDTA, 300 nM SA-APC, 6 nM Eu-Py20 in assay buffer (Perkin Elmer, Boston, Mass.). Binding to the Europium labeled antibody takes place for 40 minutes and HTRF signal was measured on a Fusion plate reader (Perkin Elmer, Boston, Mass.).

Test [2] deals with human JAK1 (a.a. 837-1142) (Homo sapiens (Human), UniProt P23458). As to the kind of experiment: In vitro JAK kinase assay (HTRF), JAK1. As to conditions: 1 mM ATP. Format: biochemical. How it is done:
as §1
On the technique in general: Time-resolved FRET reads energy transfer from a long-lived donor to a nearby acceptor.

Test [3] has as its system oxazolone-induced colitis in BALB/c mice. The conditions noted are these: published results (Beattie et al); cited from earlier work.

Sequence of human JAK1 (a.a. 837-1142) (P23458 837-1142): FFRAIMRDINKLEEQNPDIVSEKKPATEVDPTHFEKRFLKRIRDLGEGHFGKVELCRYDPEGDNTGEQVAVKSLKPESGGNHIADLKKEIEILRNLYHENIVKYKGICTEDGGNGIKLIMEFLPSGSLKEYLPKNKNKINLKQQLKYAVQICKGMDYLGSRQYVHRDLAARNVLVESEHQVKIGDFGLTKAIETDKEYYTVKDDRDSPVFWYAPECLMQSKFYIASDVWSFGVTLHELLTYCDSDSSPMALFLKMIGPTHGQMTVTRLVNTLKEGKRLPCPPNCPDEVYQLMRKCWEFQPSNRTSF
Sequence of JAK2 (a.a. 828-1132) (O60674 828-1132): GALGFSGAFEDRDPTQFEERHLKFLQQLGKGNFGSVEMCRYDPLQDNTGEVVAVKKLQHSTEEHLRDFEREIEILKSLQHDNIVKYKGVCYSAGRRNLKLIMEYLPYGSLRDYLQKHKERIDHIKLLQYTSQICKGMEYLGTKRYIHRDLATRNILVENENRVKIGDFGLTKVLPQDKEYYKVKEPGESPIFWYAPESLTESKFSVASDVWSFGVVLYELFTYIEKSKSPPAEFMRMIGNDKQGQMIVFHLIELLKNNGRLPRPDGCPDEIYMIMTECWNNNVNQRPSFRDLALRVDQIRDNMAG

For `C[C@H](O)CNCc1cc(OC2CCN([C@H]3C[C@](CC#N)(n4cc(-c5ncnc6[nH]ccc56)cn4)C3)CC2)nc(C(F)(F)F)c1` [Compound 25, {trans-3-(4-{[4-({[(2S)-2-hydroxypropyl]amino}methyl)-6-(trifluoromethyl)pyridin-2-yl]oxy}piperidin-1-yl)-1-[4-(7H-pyrrolo[2,3-d]pyrimidin-4-yl)-1H-pyrazol-1-yl]cyclobutyl}acetonitrile], the JAK2/JAK1 in test [1] is on record as over 10. Besides, the IC50 in test [2] is under 10 nM.
For `CC(C)(O)c1cc(O[C@H]2CC[C@@H](N3CC(CC#N)(n4cc(-c5ncnc6[nH]ccc56)cn4)C3)CC2)nc(C(F)(F)F)c1` [Compound 20, {1-(cis-4-{[4-(1-hydroxy-1-methylethyl)-6-(trifluoromethyl)pyridin-2-yl]oxy}cyclohexyl)-3-[4-(7H-pyrrolo[2,3-d]pyrimidin-4-yl)-1H-pyrazol-1-yl]azetidin-3-yl}acetonitrile], in that order: over 10 and under 10 nM.
The like results for `N#CCC1(n2cc(-c3ncnc4[nH]ccc34)cn2)CN(C2CCN(C(=O)c3ccnc(C(F)(F)F)n3)CC2)C1` [Compound 3, [3-[4-(7H-pyrrolo[2,3-d]pyrimidin-4-yl)-1H-pyrazol-1-yl]-1-(1-{[2-(trifluoromethyl)pyrimidin-4-yl]carbonyl}piperidin-4-yl)azetidin-3-yl]acetonitrile] were, in that order, over 10 and under 10 nM.
For `N#CCC1(n2cc(-c3ncnc4[nH]ccc34)cn2)CN([C@H]2CC[C@@H](Oc3cc(CN4CC[C@@H](O)C4)cc(C(F)(F)F)n3)CC2)C1` [Compound 21, {1-(cis-4-{[4-{[(3R)-3-hydroxypyrrolidin-1-yl]methyl}-6-(trifluoromethyl)pyridin-2-yl]oxy}cyclohexyl)-3-[4-(7H-pyrrolo[2,3-d]pyrimidin-4-yl)-1H-pyrazol-1-yl]azetidin-3-yl}acetonitrile], in that order: over 10 and under 10 nM.
As to `C[C@@H]1CCN(C(=O)CC#N)C[C@@H]1N(C)c1ncnc2[nH]ccc12` [tofacitinib], the “effect on oxazolone-induced colitis” value in test [3] is recorded as “inhibits oxazolone-induced colitis”.
On to `C[C@@H](O)CNCc1cc(OC2CCN([C@H]3C[C@](CC#N)(n4cc(-c5ncnc6[nH]ccc56)cn4)C3)CC2)nc(C(F)(F)F)c1` [Compound 24, {trans-3-(4-{[4-({[(2R)-2-hydroxypropyl]amino}methyl)-6-(trifluoromethyl)pyridin-2-yl]oxy}piperidin-1-yl)-1-[4-(7H-pyrrolo[2,3-d]pyrimidin-4-yl)-1H-pyrazol-1-yl]cyclobutyl}acetonitrile], for which, in test [1], the JAK2/JAK1 is over 10. Further, the IC50 in test [2] is under 10 nM.
As for `N#CC[C@]1(n2cc(-c3ncnc4[nH]ccc34)cn2)C[C@H](N2CCC(Oc3cc(CCO)cc(C(F)(F)F)n3)CC2)C1` [Compound 26, {trans-3-(4-{[4-(2-hydroxyethyl)-6-(trifluoromethyl)pyridin-2-yl]oxy}piperidin-1-yl)-1-[4-(7H-pyrrolo[2,3-d]pyrimidin-4-yl)-1H-pyrazol-1-yl]cyclobutyl}acetonitrile], the JAK2/JAK1 in test [1] is over 10. This compound also returned an IC50 in test [2] of under 10 nM.
For `N#CCC1(n2cc(-c3ncnc4[nH]ccc34)cn2)CN(C2CCN(C(=O)Nc3ccc(F)cc3C(F)(F)F)CC2)C1` [Compound 2, 4-{3-(Cyanomethyl)-3-[4-(7H-pyrrolo[2,3-d]pyrimidin-4-yl)-1H-pyrazol-1-yl]azetidin-1-yl}-N-[4-fluoro-2-(trifluoromethyl)phenyl]piperidine-1-carboxamide], in that order: over 10 and under 10 nM.
For `N#CC[C@]1(n2cc(-c3ncnc4[nH]ccc34)cn2)C[C@H](N2CCC(Oc3cc(CN4CCC[C@@H]4CO)cc(C(F)(F)F)n3)CC2)C1` [Compound 13, {trans-3-(4-{[4-{[(2R)-2-(hydroxymethyl)pyrrolidin-1-yl]methyl}-6-(trifluoromethyl)pyridin-2-yl]oxy}piperidin-1-yl)-1-[4-(7H-pyrrolo[2,3-d]pyrimidin-4-yl)-1H-pyrazol-1-yl]cyclobutyl}acetonitrile], in that order: over 10 and under 10 nM.
For `N#CC[C@]1(n2cc(-c3ncnc4[nH]ccc34)cn2)C[C@H](N2CCC(Oc3cc(CN4CC(O)C4)cc(C(F)(F)F)n3)CC2)C1` [Compound 11, {trans-3-(4-{[4-[(3-hydroxyazetidin-1-yl)methyl]-6-(trifluoromethyl)pyridin-2-yl]oxy}piperidin-1-yl)-1-[4-(7H-pyrrolo[2,3-d]pyrimidin-4-yl)-1H-pyrazol-1-yl]cyclobutyl}acetonitrile], the JAK2/JAK1 in test [1] was over 10. Moreover, the IC50 in test [2] is under 10 nM.
For `N#CC[C@]1(n2cc(-c3ncnc4[nH]ccc34)cn2)C[C@H](N2CCN(C(=O)c3ccnc(C(F)(F)F)n3)CC2)C1` [Compound 10, [trans-1-[4-(7H-pyrrolo[2,3-d]pyrimidin-4-yl)-1H-pyrazol-1-yl]-3-(4-{[2-(trifluoromethyl)pyrimidin-4-yl]carbonyl}piperazin-1-yl)cyclobutyl]acetonitrile], in that order: over 10 and under 10 nM.
For the compound `CCNCc1cc(O[C@H]2CC[C@@H](N3CC(CC#N)(n4cc(-c5ncnc6[nH]ccc56)cn4)C3)CC2)nc(C(F)(F)F)c1` [Compound 19, {1-(cis-4-{[4-[(ethylamino)methyl]-6-(trifluoromethyl)pyridin-2-yl]oxy}cyclohexyl)-3-[4-(7H-pyrrolo[2,3-d]pyrimidin-4-yl)-1H-pyrazol-1-yl]azetidin-3-yl}acetonitrile], the JAK2/JAK1 in test [1] is given as over 10. The compound further returned an IC50 in test [2] of under 10 nM.
The like results for `N#CCC(CN1CCN(C(=O)c2ccc(C#N)cc2F)CC1)n1ccc(-c2ncnc3[nH]ccc23)c1` (stereo not drawn) [Compound 9, 4-[(4-{3-cyano-2-[3-(7H-pyrrolo[2,3-d]pyrimidin-4-yl)-1H-pyrrol-1-yl]propyl}piperazin-1-yl)carbonyl]-3-fluorobenzonitrile] were, in that order, over 10 and under 10 nM.
For `N#CC[C@]1(n2cc(-c3ncnc4[nH]ccc34)cn2)C[C@H](N2CCC(Oc3cc(CN4CCC[C@H]4CO)cc(C(F)(F)F)n3)CC2)C1` [Compound 12, {trans-3-(4-{[4-{[(2S)-2-(hydroxymethyl)pyrrolidin-1-yl]methyl}-6-(trifluoromethyl)pyridin-2-yl]oxy}piperidin-1-yl)-1-[4-(7H-pyrrolo[2,3-d]pyrimidin-4-l)-1H-pyrazol-1-yl]cyclobutyl}acetonitrile], in that order: over 10 and under 10 nM.
The like results for `C[C@@H](CO)NCc1cc(OC2CCN([C@H]3C[C@](CC#N)(n4cc(-c5ncnc6[nH]ccc56)cn4)C3)CC2)nc(C(F)(F)F)c1` [Compound 23] were, in that order, over 10 and under 10 nM.
For `N#CCC1(n2cc(-c3ncnc4[nH]ccc34)cn2)CN([C@H]2CC[C@@H](Oc3cc(CCO)nc(C(F)(F)F)n3)CC2)C1` [Compound 18, {1-(cis-4-{[6-(2-hydroxyethyl)-2-(trifluoromethyl)pyrimidin-4-yl]oxy}cyclohexyl)-3-[4-(7H-pyrrolo[2,3-d]pyrimidin-4-yl)-1H-pyrazol-1-yl]azetidin-3-yl}acetonitrile], the JAK2/JAK1 in test [1] is listed as over 10. For the same compound, in test [2], the IC50 is under 10 nM.
As for `N#CCC1(n2cc(-c3ncnc4[nH]ccc34)cn2)CN([C@H]2CC[C@@H](Oc3cc(CN4CC[C@H](O)C4)cc(C(F)(F)F)n3)CC2)C1` [Compound 22, {1-(cis-4-{[4-{[(3S)-3-hydroxypyrrolidin-1-yl]methyl}-6-(trifluoromethyl)pyridin-2-yl]oxy}cyclohexyl)-3-[4-(7H-pyrrolo[2,3-d]pyrimidin-4-yl)-1H-pyrazol-1-yl]azetidin-3-yl}acetonitrile], the JAK2/JAK1 in test [1] is reported as over 10. This compound also gave an IC50 in test [2] of under 10 nM.
The like results for `C[C@@H](O)c1nc2cnc3ccsc3c2n1[C@H]1CC[C@H](CC#N)OC1` [Compound 5, ((2R,5S)-5-{2-[(1R)-1-hydroxyethyl]-1H-imidazo[4,5-d]thieno[3,2-b]pyridin-1-yl}tetrahydro-2H-pyran-2-yl)acetonitrile] were, in that order, over 10 and under 100 nM.
Take `N#CCC(C1CCN(c2nc3cccnc3o2)C1)n1cc(-c2ncnc3[nH]ccc23)cn1` (stereo not drawn) [Compound 7, 3-(1-[1,3]oxazolo[5,4-b]pyridin-2-ylpyrrolidin-3-yl)-3-[4-(7H-pyrrolo[2,3-d]pyrimidin-4-yl)-1H-pyrazol-1-yl]propanenitrile]: in test [1], the JAK2/JAK1 is given as over 10. Besides, the IC50 in test [2] is under 10 nM.
For `N#CCC(C1CCN(c2cccc(Cl)n2)C1)n1cc(-c2ncnc3[nH]ccc23)cn1` (single isomer, unassigned) [Compound 6, 3-[1-(6-chloropyridin-2-yl)pyrrolidin-3-yl]-3-[4-(7H-pyrrolo[2,3-d]pyrimidin-4-yl)-1H-pyrazol-1-yl]propanenitrile], in that order: over 10 and under 10 nM.
